Assay results reported in patent US10745384B2, “Indazole derivatives as αv integrin antagonists” (BRISTOL-MYERS SQUIBB COMPANY, priority 2016, dated 2020).
Counter-ions that a name gives are not always drawn.

Legend:
human αVβ3 = human αVβ3 (Homo sapiens, UniProt P05106+P06756); assay: human αVβ3 HTRF binding assay
Protocol: (§1) All binding assays used the HTRF (homogeneous time resolved fluorescence) technology from Cisbio International, therefore all assays are described as HTRF binding assays. The assay results for the Examples are listed above together with the characterization data. The HTRF binding assays are established for the following integrins: human αVβ6, human αVβ1, human αVβ3, human αVβ5, and human αVβ8. All assays used the following assay buffer: 20 mM Tris, pH 7.4, 1 mM MgCl2, 1 mM MnCl2, 0.01% Tween 20, and 0.01% BSA. Alternatively, a SPA-based assay was used for evaluation of receptor binding.
(§2) The following describes the components and a representative procedure for the human αVβ6 HTRF binding assay: Recombinant human αVβ6 Integrin (R & D systems, 3817-AV) was biotinylated. Biotinylated human αVβ6 Integrin was added to assay vessel at a final concentration of 1.25 nM. FITC-conjugated fibronectin (Cytoskeleton, FNR02) was then added at the final concentration of 5 nM. The mixture was centrifuged at 600 rpm for three minutes using Thermo Fisher Heraeus Multifuge X3 centrifuge and then incubated at room temperature for an hour. Streptavidin Terbium (Cisbio international 610STLB) was then added at the final concentration of 0.625 nM. The resulting mixture was centrifuged at 600 rpm for three minutes using Thermo Fisher Heraeus Multifuge X3 centrifuge and then incubated at room temperature overnight in dark before reading HTRF signals. […]

human αVβ1 = human αVβ1 (Homo sapiens, UniProt P05556+P06756); assay: human αVβ1 HTRF binding assay
Protocol: as §1
The following describes the components and a representative procedure for the human αVβ6 HTRF binding assay: Recombinant human αVβ6 Integrin (R & D systems, 3817-AV) was biotinylated. Biotinylated human αVβ6 Integrin was added to assay vessel at a final concentration of 1.25 nM. FITC-conjugated fibronectin (Cytoskeleton, FNR02) was then added at the final concentration of 5 nM. The mixture was centrifuged at 600 rpm for three minutes using Thermo Fisher Heraeus Multifuge X3 centrifuge and then incubated at room temperature for an hour. Streptavidin Terbium (Cisbio international 610STLB) was then added at the final concentration of 0.625 nM. The resulting mixture was centrifuged at 600 rpm for three minutes using Thermo Fisher Heraeus Multifuge X3 centrifuge and then incubated at room temperature overnight in dark before reading HTRF signals.
The SPA-based assay was carried out according to the protocol and procedures similar to the ones described in the following reference with appropriate modifications to agents and ligands which are readily understood by one skilled in the art: Pachter J A, Zhang R, Mayer-Ezell R., “Scintillation proximity assay to measure binding of soluble fibronectin to antibody-captured αVβ1 integrin” Anal Biochem. 1995 Sep. 1; 230(1):101-7.

human αVβ8 = human αVβ8 (Homo sapiens, UniProt P06756+P26012); assay: human αVβ8 HTRF binding assay
Protocol: as §1, §2

human αVβ6 = biological target: T1, human αVβ6 (Homo sapiens, UniProt P06756+P18564); assay: human αVβ6 HTRF binding assay; settings: recombinant human αVβ6 integrin, FITC-conjugated fibronectin
T1 construct: purchased R & D systems 3817-AV
Outline: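 HTRF binding in 20 mM Tris pH 7.4 with 1 mM MgCl2, 1 mM MnCl2, 0.01% Tween 20 and 0.01% BSA. For αVβ6, biotinylated integrin (1.25 nM) and FITC-fibronectin (5 nM) were incubated 1 h at RT, then streptavidin-terbium (0.625 nM) was added overnight in the dark. An SPA-based fibronectin binding format was an alternative.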

human αVβ5 = human αVβ5 (Homo sapiens, UniProt P06756+P18084); assay: human αVβ5 HTRF binding assay
Protocol: as §1, §2

human αVβ8, sequence (P06756 31-992 limits assumed): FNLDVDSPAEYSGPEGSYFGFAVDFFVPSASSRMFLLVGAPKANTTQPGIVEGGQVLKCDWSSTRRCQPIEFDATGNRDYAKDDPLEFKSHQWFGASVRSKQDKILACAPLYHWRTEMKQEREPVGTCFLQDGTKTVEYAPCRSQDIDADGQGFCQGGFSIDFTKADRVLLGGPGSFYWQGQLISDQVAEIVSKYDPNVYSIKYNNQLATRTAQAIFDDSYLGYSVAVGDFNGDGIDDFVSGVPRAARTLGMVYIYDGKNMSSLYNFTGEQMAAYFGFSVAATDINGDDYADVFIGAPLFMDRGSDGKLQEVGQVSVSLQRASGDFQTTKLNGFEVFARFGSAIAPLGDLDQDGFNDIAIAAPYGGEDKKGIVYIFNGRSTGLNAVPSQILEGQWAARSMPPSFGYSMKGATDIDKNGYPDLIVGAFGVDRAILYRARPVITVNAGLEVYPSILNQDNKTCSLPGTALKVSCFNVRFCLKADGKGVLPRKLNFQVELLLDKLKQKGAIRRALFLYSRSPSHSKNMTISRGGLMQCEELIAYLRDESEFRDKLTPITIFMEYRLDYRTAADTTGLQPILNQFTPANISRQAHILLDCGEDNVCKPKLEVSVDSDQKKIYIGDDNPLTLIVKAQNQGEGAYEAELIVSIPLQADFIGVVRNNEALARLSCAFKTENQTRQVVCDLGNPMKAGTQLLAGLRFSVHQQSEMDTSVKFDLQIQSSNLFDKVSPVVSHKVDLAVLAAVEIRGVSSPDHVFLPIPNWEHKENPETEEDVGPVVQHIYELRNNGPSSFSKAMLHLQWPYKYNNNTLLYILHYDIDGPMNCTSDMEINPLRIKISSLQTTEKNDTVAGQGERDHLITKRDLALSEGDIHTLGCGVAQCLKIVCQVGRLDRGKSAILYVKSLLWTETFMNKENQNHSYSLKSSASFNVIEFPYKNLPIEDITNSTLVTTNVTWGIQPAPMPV
human αVβ8, sequence (P26012 43-684 limits assumed): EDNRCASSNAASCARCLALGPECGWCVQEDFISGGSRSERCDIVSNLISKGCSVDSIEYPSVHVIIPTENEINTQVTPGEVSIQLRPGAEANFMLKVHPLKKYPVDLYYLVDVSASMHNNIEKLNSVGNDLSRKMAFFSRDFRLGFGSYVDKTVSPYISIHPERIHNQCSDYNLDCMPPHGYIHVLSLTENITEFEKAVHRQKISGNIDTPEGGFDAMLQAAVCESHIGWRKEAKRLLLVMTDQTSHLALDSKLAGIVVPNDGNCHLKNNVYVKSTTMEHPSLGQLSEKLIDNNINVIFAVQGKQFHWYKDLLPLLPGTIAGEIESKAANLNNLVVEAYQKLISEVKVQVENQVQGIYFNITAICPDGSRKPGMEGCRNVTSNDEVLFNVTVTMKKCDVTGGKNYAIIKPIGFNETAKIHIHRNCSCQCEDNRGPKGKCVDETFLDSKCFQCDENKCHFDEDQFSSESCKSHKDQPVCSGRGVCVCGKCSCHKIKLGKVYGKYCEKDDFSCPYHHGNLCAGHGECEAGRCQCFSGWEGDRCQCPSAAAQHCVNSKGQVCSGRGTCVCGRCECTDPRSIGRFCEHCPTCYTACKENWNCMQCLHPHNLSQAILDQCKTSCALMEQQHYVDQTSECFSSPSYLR
human αVβ1, sequence (P06756 31-992 limits assumed): as the sequence (P06756 31-992 limits assumed) above
human αVβ1, sequence (P05556 21-728 limits assumed): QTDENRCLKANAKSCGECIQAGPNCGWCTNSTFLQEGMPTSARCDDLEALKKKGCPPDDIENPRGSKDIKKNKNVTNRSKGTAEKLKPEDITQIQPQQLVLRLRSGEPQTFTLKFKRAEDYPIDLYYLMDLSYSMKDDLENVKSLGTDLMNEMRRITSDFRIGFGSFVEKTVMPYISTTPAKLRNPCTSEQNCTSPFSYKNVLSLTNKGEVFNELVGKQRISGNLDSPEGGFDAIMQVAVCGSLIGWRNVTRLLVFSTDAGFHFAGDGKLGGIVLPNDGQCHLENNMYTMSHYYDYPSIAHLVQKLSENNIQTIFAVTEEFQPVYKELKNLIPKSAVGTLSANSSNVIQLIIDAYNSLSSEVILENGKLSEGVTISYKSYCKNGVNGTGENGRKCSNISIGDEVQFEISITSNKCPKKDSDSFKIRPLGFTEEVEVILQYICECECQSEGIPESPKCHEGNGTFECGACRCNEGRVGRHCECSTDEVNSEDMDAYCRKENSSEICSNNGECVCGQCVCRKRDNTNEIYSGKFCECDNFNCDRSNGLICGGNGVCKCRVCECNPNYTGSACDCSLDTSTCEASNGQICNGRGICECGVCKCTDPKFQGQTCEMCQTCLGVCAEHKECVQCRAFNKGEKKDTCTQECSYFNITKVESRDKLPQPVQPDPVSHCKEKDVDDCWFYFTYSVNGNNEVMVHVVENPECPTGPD
T1 sequence (P06756 31-992 limits assumed): as the sequence (P06756 31-992 limits assumed) above
T1 sequence (P18564 22-707 limits assumed): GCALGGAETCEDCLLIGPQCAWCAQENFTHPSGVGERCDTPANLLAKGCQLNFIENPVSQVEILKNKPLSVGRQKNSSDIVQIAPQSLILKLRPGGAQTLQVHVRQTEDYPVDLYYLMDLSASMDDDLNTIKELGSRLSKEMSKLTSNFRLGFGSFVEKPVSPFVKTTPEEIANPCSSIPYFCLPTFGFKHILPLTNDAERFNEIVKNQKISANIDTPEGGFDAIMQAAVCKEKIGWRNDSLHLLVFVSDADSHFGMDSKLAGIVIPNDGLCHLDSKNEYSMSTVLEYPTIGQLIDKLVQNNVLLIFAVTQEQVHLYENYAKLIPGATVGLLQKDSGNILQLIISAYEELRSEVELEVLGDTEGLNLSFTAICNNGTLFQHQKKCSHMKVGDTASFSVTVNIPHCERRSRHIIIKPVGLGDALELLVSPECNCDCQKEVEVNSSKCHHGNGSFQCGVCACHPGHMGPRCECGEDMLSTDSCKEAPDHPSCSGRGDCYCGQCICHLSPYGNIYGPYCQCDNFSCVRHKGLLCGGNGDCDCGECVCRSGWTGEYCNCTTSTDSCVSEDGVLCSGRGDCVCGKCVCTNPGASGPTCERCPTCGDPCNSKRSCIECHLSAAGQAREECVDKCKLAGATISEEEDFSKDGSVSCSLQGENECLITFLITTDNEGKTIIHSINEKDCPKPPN
human αVβ5, sequence (P06756 31-992 limits assumed): as the sequence (P06756 31-992 limits assumed) above
human αVβ5, sequence (P18084 24-719 limits assumed): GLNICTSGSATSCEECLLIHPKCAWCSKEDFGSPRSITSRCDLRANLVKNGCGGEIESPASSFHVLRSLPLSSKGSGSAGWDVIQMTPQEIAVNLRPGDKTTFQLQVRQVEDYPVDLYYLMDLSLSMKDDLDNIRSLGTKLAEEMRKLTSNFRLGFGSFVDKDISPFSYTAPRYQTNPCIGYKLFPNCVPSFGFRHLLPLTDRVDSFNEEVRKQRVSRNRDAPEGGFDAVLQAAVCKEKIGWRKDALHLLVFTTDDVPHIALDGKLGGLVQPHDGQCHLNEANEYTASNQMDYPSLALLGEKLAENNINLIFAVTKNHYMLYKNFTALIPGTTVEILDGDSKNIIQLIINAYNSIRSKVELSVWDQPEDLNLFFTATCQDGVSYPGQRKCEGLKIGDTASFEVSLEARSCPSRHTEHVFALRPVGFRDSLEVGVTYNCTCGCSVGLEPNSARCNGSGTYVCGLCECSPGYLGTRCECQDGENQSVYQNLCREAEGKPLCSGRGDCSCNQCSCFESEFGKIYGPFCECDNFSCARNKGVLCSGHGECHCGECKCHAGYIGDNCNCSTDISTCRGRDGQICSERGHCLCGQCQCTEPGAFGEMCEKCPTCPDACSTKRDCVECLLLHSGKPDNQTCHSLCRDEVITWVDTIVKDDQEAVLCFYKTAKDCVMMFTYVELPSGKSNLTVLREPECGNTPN
human αVβ3, sequence (P06756 31-992 limits assumed): as the sequence (P06756 31-992 limits assumed) above
human αVβ3, sequence (P05106 27-718 limits assumed): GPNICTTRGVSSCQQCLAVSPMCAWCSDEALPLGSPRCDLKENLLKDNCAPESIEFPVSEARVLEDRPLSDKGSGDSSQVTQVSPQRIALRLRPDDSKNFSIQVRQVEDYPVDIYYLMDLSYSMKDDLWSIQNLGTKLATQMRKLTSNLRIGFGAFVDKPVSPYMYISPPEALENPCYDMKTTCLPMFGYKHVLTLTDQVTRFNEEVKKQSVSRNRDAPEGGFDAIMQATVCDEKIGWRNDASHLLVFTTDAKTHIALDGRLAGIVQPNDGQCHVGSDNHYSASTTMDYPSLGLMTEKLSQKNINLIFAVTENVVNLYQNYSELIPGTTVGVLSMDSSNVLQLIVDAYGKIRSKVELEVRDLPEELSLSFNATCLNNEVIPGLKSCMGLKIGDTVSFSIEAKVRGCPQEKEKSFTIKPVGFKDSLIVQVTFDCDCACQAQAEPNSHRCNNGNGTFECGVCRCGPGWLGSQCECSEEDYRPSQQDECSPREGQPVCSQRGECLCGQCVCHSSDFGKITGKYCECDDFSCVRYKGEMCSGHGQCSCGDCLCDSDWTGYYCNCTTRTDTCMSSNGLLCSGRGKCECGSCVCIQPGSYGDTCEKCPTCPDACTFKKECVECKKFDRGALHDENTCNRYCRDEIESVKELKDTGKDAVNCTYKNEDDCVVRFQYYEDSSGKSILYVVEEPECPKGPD

| Structure (SMILES) | IC50 (human αVβ3) [nM] | IC50 (human αVβ1) [nM] | IC50 (human αVβ8) [µM] | IC50 (human αVβ6) [nM] | IC50 (human αVβ5) [nM] |
| --- | --- | --- | --- | --- | --- |
| CNc1ncc(C(CC(=O)O)n2ncc3cc(OCCc4ccc5c(n4)NCCC5)ccc32)cn1 (stereo not shown) [Example 112, 3-(2-(Methylamino)pyrimidin-5-yl)-3-(5-(2-(5,6,7,8-tetrahydro-1,8-naphthyridin-2-yl)ethoxy)-1H-indazol-1-yl)propanoic acid, 2 TFA] | 2.9 | 93 | 5 | 21 | – |
| O=C(O)CC(c1cnc2c(c1)OCCO2)n1ncc2cc(OCCc3ccc4c(n3)NCCC4)ccc21 (stereo not shown) [Example 109, 3-(2,3-Dihydro-[1,4]dioxino[2,3-b]pyridin-7-yl)-3-(5-(2-(5,6,7,8-tetrahydro-1,8-naphthyridin-2-yl)ethoxy)-1H-indazol-1-yl)propanoic acid, 2 TFA] | 1.3 | 62 | 9.3 | 15 | – |
| CCOc1ncc(C(CC(=O)O)n2ncc3cc(OCCc4ccc5c(n4)NCCC5)ccc32)cn1 (stereo not shown) [Example 77, 3-(2-Ethoxypyrimidin-5-yl)-3-(5-(2-(5,6,7,8-tetrahydro-1,8-naphthyridin-2-yl)ethoxy)-1H-indazol-1-yl)propanoic acid, TFA] | 2.8 | 170 | 5 | 5.8 | 0.39 |
| COc1ccc(C(CC(=O)O)n2ncc3cc(OCCc4ccc5c(n4)NCCC5)ccc32)cn1 (stereo not shown) [Example 34, 3-(6-Methoxypyridin-3-yl)-3-(5-(2-(5,6,7,8-tetrahydro-1,8-naphthyridin-2-yl)ethoxy)-1H-indazol-1-yl)propanoic acid, TFA] | 2.5 | 95 | 1.3 | 12 | 0.38 |
| O=C(O)CC(c1cnc2nccnc2c1)n1ncc2cc(OCCc3ccc4c(n3)NCCC4)ccc21 (stereo not shown) [Example 95, 3-(Pyrido[2,3-b]pyrazin-7-yl)-3-(5-(2-(5,6,7,8-tetrahydro-1,8-naphthyridin-2-yl)ethoxy)-1H-indazol-1-yl)propanoic acid, 2 TFA] | 2.4 | 210 | 7.6 | 30 | – |
| O=C(O)CC(c1cnc2ncccc2c1)n1ncc2cc(OCCc3ccc4c(n3)NCCC4)ccc21 (stereo not shown) [Example 101, 3-(1,8-Naphthyridin-3-yl)-3-(5-(2-(5,6,7,8-tetrahydro-1,8-naphthyridin-2-yl)ethoxy)-1H-indazol-1-yl)propanoic acid, 2 TFA] | 1.6 | 100 | 2.3 | 5.7 | – |
| O=C(O)CC(c1cnc2ccccc2n1)n1ncc2cc(CCc3ccc4c(n3)NCCC4)ccc21 (stereo not shown) [Example 27, 3-(Quinoxalin-2-yl)-3-(5-(2-(5,6,7,8-tetrahydro-1,8-naphthyridin-2-yl)ethyl)-1H-indazol-1-yl)propanoic acid] | – | – | – | 240 | – |
| O=C(O)CC(c1cc(Cl)cc(Cl)c1)n1ncc2cc(CCc3ccc4c(n3)NCCC4)ccc21 (stereo not shown) [Example 28, 3-(3,5-Dichlorophenyl)-3-(5-(2-(5,6,7,8-tetrahydro-1,8-naphthyridin-2-yl)ethyl)-1H-indazol-1-yl)propanoic acid] | – | – | – | 210 | – |
| O=C(O)CC(Cc1ccc(OCc2ccccc2)cc1)n1ncc2cc(OCCc3ccc4c(n3)NCCC4)ccc21 (stereo not shown) [Example 69, 4-(4-(Benzyloxy)phenyl)-3-(5-(2-(5,6,7,8-tetrahydro-1,8-naphthyridin-2-yl)ethoxy)-1H-indazol-1-yl)butanoic acid, TFA] | – | – | – | 400 | – |
| COc1ccc([C@@H](CC(=O)O)n2ncc3cc(OCCc4ccc5c(n4)NCCC5)ccc32)cn1 [Example 40, (R)-3-(6-Methoxypyridin-3-yl)-3-(5-(2-(5,6,7,8-tetrahydro-1,8-naphthyridin-2-yl)ethoxy)-1H-indazol-1-yl)propanoic acid] | – | – | – | 210 | – |
| CCCC(CC(=O)O)n1ncc2cc(OCCc3ccc4c(n3)NCCC4)ccc21 (stereo not shown) [Example 162, 3-(5-(2-(5,6,7,8-tetrahydro-1,8-naphthyridin-2-yl)ethoxy)-1H-indazol-1-yl)hexanoic acid] | – | – | – | 730 | – |
| Cc1cc(C(CC(=O)O)n2ncc3cc(OCCc4ccc5c(n4)NCCC5)ccc32)cnc1OCC(C)(C)O (stereo not shown) [Example 90, 3-(6-(2-Hydroxy-2-methylpropoxy)-5-methylpyridin-3-yl)-3-(5-(2-(5,6,7,8-tetrahydro-1,8-naphthyridin-2-yl)ethoxy)-1H-indazol-1-yl)propanoic acid, TFA] | – | – | – | 9.5 | – |

The remaining lines, values ahead:

| IC50 (human αVβ3) [nM] | IC50 (human αVβ1) [nM] | IC50 (human αVβ8) [µM] | IC50 (human αVβ6) [nM] | IC50 (human αVβ5) [nM] | Structure (SMILES) |
| --- | --- | --- | --- | --- | --- |
| 1.6 | 63 | 2.2 | 19 | 0.46 | Cn1ncc2cc(C(CC(=O)O)n3ncc4cc(OCCc5ccc6c(n5)NCCC6)ccc43)cnc21 (stereo not shown) [Example 117, 3-(1-Methyl-1H-pyrazolo[3,4-b]pyridin5-yl)-3-(5-(2-(5,6,7,8-tetrahydro-1,8-naphthyridin-2-yl)ethoxy)-1H-indazol-1-yl)propanoic acid, 2 TFA] |
| 1.4 | 98 | 4.4 | 10.6 | 0.6 | O=C(O)CC(c1cnc(N2CCC2)nc1)n1ncc2cc(OCCc3ccc4c(n3)NCCC4)ccc21 (stereo not shown) [Example 119, 3-(2-(Azetidin-1-yl)pyrimidin-5-yl)-3-(5-(2-(5,6,7,8-tetrahydro-1,8-naphthyridin-2-yl)ethoxy)-1H-indazol-1-yl)propanoic acid, 2 TFA] |
| – | – | – | 5.3 | – | O=C(O)CC(c1cncc(C2CC2)c1)n1ncc2cc(OCCc3ccc4c(n3)NCCC4)ccc21 (stereo not shown) [Example 155, 3-(5-cyclopropylpyridin-3-yl)-3-(5-(2-(5,6,7,8-tetrahydro-1,8-naphthyridin-2-yl)ethoxy)-1H-indazol-1-yl)propanoic acid] |
| – | – | – | 7.8 | – | COc1ncc(C(CC(=O)O)n2ncc3cc(OCCc4ccc5c(n4)NCCC5)ccc32)cc1F (stereo not shown) [Example 86, 3-(5-Fluoro-6-methoxypyridin-3-yl)-3-(5-(2-(5,6,7,8-tetrahydro-1,8-naphthyridin-2-yl)ethoxy)-1H-indazol-1-yl)propanoic acid, TFA] |
| – | – | – | 46 | – | CC(=O)NCc1cncc(C(CC(=O)O)n2ncc3cc(OCCc4ccc5c(n4)NCCC5)ccc32)c1 (stereo not shown) [Example 171] |
| – | – | – | 110 | – | O=C(O)C[C@H](c1cncc(N2CCCC2=O)c1)n1ncc2cc(OCCc3ccc4c(n3)NCCC4)ccc21 [Example 150, (R)-3-(5-(2-oxopyrrolidin-1-yl)pyridin-3-yl)-3-(5-(2-(5,6,7,8-tetrahydro-1,8-naphthyridin-2-yl)ethoxy)-1H-indazol-1-yl)propanoic acid] |
| 2.2 | 39 | 1.3 | 4.3 | – | O=C(O)CC(c1cncc(N2CCCC2=O)c1)n1ncc2cc(OCCc3ccc4c(n3)NCCC4)ccc21 (stereo not shown) [Example 102, 3-(5-(2-Oxopyrrolidin-1-yl)pyridin-3-yl)-3-(5-(2-(5,6,7,8-tetrahydro-1,8-naphthyridin-2-yl)ethoxy)-1H-indazol-1-yl)propanoic acid, 2 TFA] |
| – | – | – | 9.8 | – | Cn1cc(-c2cncc(C(CC(=O)O)n3ncc4cc(OCCc5ccc6c(n5)NCCC6)ccc43)c2)cn1 (stereo not shown) [Example 143, 3-(5-(1-methyl-1H-pyrazol-4-yl)pyridin-3-yl)-3-(5-(2-(5,6,7,8-tetrahydro-1,8-naphthyridin-2-yl)ethoxy)-1H-indazol-1-yl)propanoic acid] |
| – | – | – | 2600 | – | Cc1ncc([C@@H](CC(=O)O)n2ncc3cc(OCCc4ccc5c(n4)NCCC5)ccc32)cn1 [Example 160, (R)-3-(2-methylpyrimidin-5-yl)-3-(5-(2-(5,6,7,8-tetrahydro-1,8-naphthyridin-2-yl)ethoxy)-1H-indazol-1-yl)propanoic acid] |
